Test results as given in ChEMBL document CHEMBL1201862, “PubChem BioAssay data set” (2004).
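Grown in 96-well plates, cells were treated for 48 hours with each compound at five concentrations. Insufficient inhibition: endpoint recorded as highest concentration tested. GI50 is the concentration that inhibits growth by half.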 The source made the active and inactive calls. No stated cut-off is given here; in the data, active = GI50 up to about 1.1 µM and inactive = higher.

Key:
Assay in all cases: inhibition of tumour cell growth, NCI panel, 48 h
SF-295 = system: SF-295
SW-620 = system: SW-620
ACHN = system: ACHN
HOP-92 = system: HOP-92
HT-29 = system: HT-29
A549 = system: A549
Malme-3M = system: Malme-3M
NCI-H226 = system: NCI-H226
MDA-MB-231 = system: MDA-MB-231
SK-MEL-2 = system: SK-MEL-2
T47D = system: T47D
SNB-19 = system: SNB-19
HL-60 = system: HL-60
UACC-62 = system: UACC-62
PC-3 = system: PC-3
CAKI-1 = system: CAKI-1
786-0 = system: 786-0
NCI-H522 = system: NCI-H522
RXF 393 = system: RXF 393
MDA-N = system: MDA-N

SMILES	GI50 (SF-295)	GI50 (SW-620)	GI50 (ACHN)	GI50 (HOP-92)	GI50 (HT-29)	GI50 (A549)	GI50 (Malme-3M)	GI50 (NCI-H226)	GI50 (MDA-MB-231)	GI50 (SK-MEL-2)	GI50 (T47D)	GI50 (SNB-19)	GI50 (HL-60)	GI50 (UACC-62)	GI50 (PC-3)	GI50 (CAKI-1)	GI50 (786-0)	GI50 (NCI-H522)	GI50 (RXF 393)	GI50 (MDA-N)
O=C(N/N=C\c1ccc2ccccc2c1)Nc1ccc([N+](=O)[O-])cc1	22.5 µM (inactive)	32.7 µM (inactive)	24.6 µM (inactive)	17.5 µM (inactive)	21.3 µM (inactive)	26.4 µM (inactive)	27.7 µM (inactive)	29.4 µM (inactive)	32.2 µM (inactive)	24 µM (inactive)	17.9 µM (inactive)	24.3 µM (inactive)	> 57.9 µM (inactive)	24.7 µM (inactive)	17.2 µM (inactive)	45 µM (inactive)	24 µM (inactive)	16.3 µM (inactive)	26.4 µM (inactive)	23.5 µM (inactive)
NC(=S)N/N=C\c1ccc(OCc2cccc(COc3ccc(/C=N/NC(N)=S)cc3)n2)cc1	> 100 µM (inactive)	> 100 µM (inactive)	9.53 µM (inactive)	> 100 µM (inactive)	> 100 µM (inactive)	> 100 µM (inactive)	86.5 µM (inactive)	> 100 µM (inactive)	5.25 µM (inactive)	12.5 µM (inactive)	0.164 µM (active)	> 100 µM (inactive)	10.5 µM (inactive)	–	21.6 µM (inactive)	17 µM (inactive)	> 100 µM (inactive)	2.88 µM (inactive)	1.63 µM (inactive)	56.8 µM (inactive)
O=[N+]([O-])c1ccc(C(O)(C#CCN2CCCC2)c2ccccc2)cc1 (stereo not given)	30.4 µM (inactive)	98.9 µM (inactive)	56.2 µM (inactive)	10.2 µM (inactive)	17 µM (inactive)	81.5 µM (inactive)	16.6 µM (inactive)	81.5 µM (inactive)	43 µM (inactive)	24.5 µM (inactive)	28.5 µM (inactive)	98.2 µM (inactive)	18.4 µM (inactive)	24.7 µM (inactive)	30.4 µM (inactive)	–	39.4 µM (inactive)	22.4 µM (inactive)	57.9 µM (inactive)	34.1 µM (inactive)
Cc1nc2sc3cccc(Cl)c3n2c(=O)c1/N=N/c1ccc(Cl)cc1	53.1 µM (inactive)	66.5 µM (inactive)	59.7 µM (inactive)	46.6 µM (inactive)	67.1 µM (inactive)	77.8 µM (inactive)	70.6 µM (inactive)	42.4 µM (inactive)	71 µM (inactive)	> 100 µM (inactive)	45.3 µM (inactive)	> 100 µM (inactive)	> 100 µM (inactive)	–	51.2 µM (inactive)	> 100 µM (inactive)	> 100 µM (inactive)	45.7 µM (inactive)	> 100 µM (inactive)	> 100 µM (inactive)
COc1cccc(C2c3cc4c(cc3OC(C)(O)C2C)OCO4)c1O (stereo not given)	2.96 µM (inactive)	3.25 µM (inactive)	7.06 µM (inactive)	6 µM (inactive)	3.88 µM (inactive)	4.57 µM (inactive)	6.18 µM (inactive)	5.12 µM (inactive)	0.897 µM (active)	9.89 µM (inactive)	3.82 µM (inactive)	5.2 µM (inactive)	2.82 µM (inactive)	5.12 µM (inactive)	3.37 µM (inactive)	–	4.44 µM (inactive)	2.27 µM (inactive)	3.69 µM (inactive)	1.48 µM (inactive)
CC(=O)N1NC(c2ccccc2)=CC(=O)/C1=C/C(=O)c1ccccc1	58.2 µM (inactive)	–	77.3 µM (inactive)	34.5 µM (inactive)	> 100 µM (inactive)	53.1 µM (inactive)	37.6 µM (inactive)	93.8 µM (inactive)	> 100 µM (inactive)	> 100 µM (inactive)	39.3 µM (inactive)	58.7 µM (inactive)	35.2 µM (inactive)	42.5 µM (inactive)	> 100 µM (inactive)	29.7 µM (inactive)	> 100 µM (inactive)	15.9 µM (inactive)	24.2 µM (inactive)	30.6 µM (inactive)
